Measured values from the NIST ThermoML archive (doi:10.1021/acs.jced.6b00957).
Numbers after ± are expanded uncertainties.

How the values were obtained:
[1] = Molar enthalpy of transition or fusion; details: Crystal; DSC
[2] = Crystal; DTA

Molar enthalpy of transition or fusion [1]: 6.05 ± 0.382 kcal/mol
Normal melting temperature [2]: 167.1 ± 4 °C
SMILES: O=C(O)c1c(O)cccc1O [2,6-dihydroxybenzoic acid]
